According to US10023570B2 (Array BioPharma, Inc., priority 2015, dated 2018):

Target: human KDR protein in HEK-293 cells (Homo sapiens (Human), UniProt P35968)
Experiment: KDR Cell Assay (phospho-KDR in HEK-293 cells expressing inducible KDR)
Format: cell-based
Conditions: pKDR Cell HEK 10% FBS IC50, HEK-293 cells expressing inducible KDR, VEGF stimulated
Method in brief: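 HEK-293 cells with inducible human KDR were treated with compound for 1 h in DMEM (0.25% DMSO final), then lysed. Phospho-KDR was quantified by Meso Scale immunoassay, expressed as percent of control, and IC50 taken where a 4-parameter logistic fit crossed 50 POC.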

Sequence of human KDR protein in HEK-293 cells (P35968 20-1356): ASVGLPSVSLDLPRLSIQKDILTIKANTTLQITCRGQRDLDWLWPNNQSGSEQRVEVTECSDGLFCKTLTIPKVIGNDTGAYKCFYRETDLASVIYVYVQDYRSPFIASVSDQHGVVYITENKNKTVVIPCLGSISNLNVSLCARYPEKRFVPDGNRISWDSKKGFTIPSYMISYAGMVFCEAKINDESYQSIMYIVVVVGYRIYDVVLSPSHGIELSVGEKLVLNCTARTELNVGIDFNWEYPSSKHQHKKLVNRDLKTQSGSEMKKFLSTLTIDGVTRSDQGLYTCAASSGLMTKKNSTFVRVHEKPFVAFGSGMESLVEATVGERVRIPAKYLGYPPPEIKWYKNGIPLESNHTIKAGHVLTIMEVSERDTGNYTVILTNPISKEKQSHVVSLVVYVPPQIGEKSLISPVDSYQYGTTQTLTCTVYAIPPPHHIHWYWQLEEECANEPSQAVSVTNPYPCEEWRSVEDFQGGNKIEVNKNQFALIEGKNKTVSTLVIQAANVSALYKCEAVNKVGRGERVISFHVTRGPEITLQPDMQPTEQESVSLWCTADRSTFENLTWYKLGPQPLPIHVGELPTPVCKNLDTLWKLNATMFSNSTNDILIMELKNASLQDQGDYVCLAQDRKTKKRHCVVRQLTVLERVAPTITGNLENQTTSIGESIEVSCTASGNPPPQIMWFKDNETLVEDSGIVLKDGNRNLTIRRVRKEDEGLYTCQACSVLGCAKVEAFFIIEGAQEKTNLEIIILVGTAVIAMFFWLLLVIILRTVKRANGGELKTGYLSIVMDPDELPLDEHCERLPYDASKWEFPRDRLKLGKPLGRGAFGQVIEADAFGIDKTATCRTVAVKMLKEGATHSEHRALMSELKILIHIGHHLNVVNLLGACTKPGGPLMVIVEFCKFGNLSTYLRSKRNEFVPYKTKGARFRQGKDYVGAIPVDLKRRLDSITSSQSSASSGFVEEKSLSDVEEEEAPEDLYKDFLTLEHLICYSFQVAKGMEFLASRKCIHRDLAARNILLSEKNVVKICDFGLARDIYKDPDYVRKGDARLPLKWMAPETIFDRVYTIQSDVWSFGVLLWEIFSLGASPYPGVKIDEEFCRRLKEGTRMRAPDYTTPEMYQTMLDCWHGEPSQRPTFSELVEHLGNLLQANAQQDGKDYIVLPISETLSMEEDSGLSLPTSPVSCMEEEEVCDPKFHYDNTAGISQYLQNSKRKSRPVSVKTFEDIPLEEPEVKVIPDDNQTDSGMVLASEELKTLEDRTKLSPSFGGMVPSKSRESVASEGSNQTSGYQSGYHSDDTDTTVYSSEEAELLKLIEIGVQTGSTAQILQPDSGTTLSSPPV

SMILES | IC50 | IC50 (10% FBS)
CN1CCCC2(CCN(c3ccc(-c4cc(-c5cnn(C)c5)cn5ncc(C#N)c45)cn3)CC2)C1 [Example 556, 6-(1-methyl-1H-pyrazol-4-yl)-4-(6-(2-methyl-2,9-diazaspiro[5.5]undecan-9-yl)pyridin-3-yl)pyrazolo[1,5-a]pyridine-3-carbonitrile] | 1900 nM | –
Cc1cc(-c2cc(-c3cnn(C)c3)cn3ncc(C#N)c23)cnc1N1CCN(C(=O)[C@H](O)c2ccccc2)CC1 [Example 278, (R)-4-(6-(4-(2-hydroxy-2-phenylacetyl)piperazin-1-yl)-5-methylpyridin-3-yl)-6-(1-methyl-1H-pyrazol-4-yl)pyrazolo[1,5-a]pyridine-3-carbonitrile] | – | 138 nM
Cn1cc(-c2cc(-c3ccc(N4CCN(C(=O)C5(c6cccc(Cl)c6)CC5)CC4)nc3)c3c(C#N)cnn3c2)cn1 [Example 356, 4-(6-(4-(1-(3-chlorophenyl)cyclopropane-1-carbonyl)piperazin-1-yl)pyridin-3-yl)-6-(1-methyl-1H-pyrazol-4-yl)pyrazolo[1,5-a]pyridine-3-carbonitrile 2,2,2-trifluoroacetate] | – | 126 nM
Cn1cc(-c2cc(-c3ccc(N4CCC5(CC4)CN(C(=O)OC(C)(C)C)C5)nc3)c3c(C#N)cnn3c2)cn1 [Example 214, tert-butyl 7-(5-(3-cyano-6-(1-methyl-1H-pyrazol-4-yl)pyrazolo[1,5-a]pyridin-4-yl)pyridin-2-yl)-2,7-diazaspiro[3.5]nonane-2-carboxylate] | – | 597 nM
Cn1cc(-c2cc(-c3ccc(N4C5CCC4CN(Cc4ccccc4)C5)nc3)c3c(C#N)cnn3c2)cn1 [Example 491, 4-(6-(3-benzyl-3,8-diazabicyclo[3.2.1]octan-8-yl)pyridin-3-yl)-6-(1-methyl-1H-pyrazol-4-yl)pyrazolo[1,5-a]pyridine-3-carbonitrile] | 120 nM | –

Now from value to molecule:

IC50 | IC50 (10% FBS) | SMILES
630 nM | – | Cn1cc(-c2cc(-c3ccc(N4CCN(Cc5ccc(F)cc5)CC4)nc3)c3c(C#N)cnn3c2)cn1 [Example 424, 4-(6-(4-(4-fluorobenzyl)piperazin-1-yl)pyridin-3-yl)-6-(1-methyl-1H-pyrazol-4-yl)pyrazolo[1,5-a]pyridine-3-carbonitrile]
– | 606 nM | Cn1cc(-c2cc(-c3ccc(N4CCN(C(=O)[C@H](O)c5ccccc5)CC4)nc3)c3c(Cl)cnn3c2)cn1 [Example 327, (R)-1-(4-(5-(3-chloro-6-(1-methyl-1H-pyrazol-4-yl)pyrazolo[1,5-a]pyridin-4-yl)pyridin-2-yl)piperazin-1-yl)-2-hydroxy-2-phenylethanone]
– | 73.6 nM | Cn1cc(-c2cc(-c3ccc(N4CCN(CC(O)c5ccc(F)cc5)CC4)nc3)c3c(C#N)cnn3c2)cn1 (centres unmarked) [Example 164, 4-(6-(4-(2-(4-fluorophenyl)-2-hydroxyethyl)piperazin-1-yl)pyridin-3-yl)-6-(1-methyl-1H-pyrazol-4-yl)pyrazolo[1,5-a]pyridine-3-carbonitrile]
968 nM | – | Cn1cc(-c2cc(-c3ccc(N4CCN(Cc5ccccn5)CC4)nc3)c3c(C#N)cnn3c2)cn1 [Example 473, 6-(1-methyl-1H-pyrazol-4-yl)-4-(6-(4-(pyridine-2-ylmethyl)piperazin-1-yl)pyridin-3-yl)pyrazolo[1,5-a]pyridine-3-carbonitrile]
1250 nM | – | Cn1cc(-c2cc(-c3ccc(N4CCN(Cc5ccc(F)cc5F)CC4)nc3)c3c(C#N)cnn3c2)cn1 [Example 426, 4-(6-(4-(2,4-difluorobenzyl)piperazin-1-yl)pyridin-3-yl)-6-(1-methyl-1H-pyrazol-4-yl)pyrazolo[1,5-a]pyridine-3-carbonitrile]
≥ 5000 nM | – | Cc1cc(-c2cc(-c3ccc(N4CCN(Cc5ccccc5)CC4)nc3)c3c(C#N)cnn3c2)on1 [Example 629, 4-(6-(4-benzylpiperazin-1-yl)pyridine-3-yl)-6-(3-methylisoxazol-5-yl)pyrazolo[1,5-a]pyridine-3-carbonitrile]
